Like-named read-outs stand apart in the source and are kept apart here.
Tests used:
[1] = in vitro; assay type: cell-based; settings: human, HepG2 or HepG2.117 cells, mean value
Protocol: Cytotoxicity of the compounds was tested using HepG2 or HepG2.117 cells, incubated for 3 or 4 days in the presence of compounds. The viability of the cells was assessed using the PERKIN ELMER ATPlite Luminescence Assay System.”

[2] = system: HBV (HepG2.117 cell line, inducibly HBV producing); assay: Anti-HBV activity: intracellular HBV DNA by real-time PCR in HepG2.117 cells after 3 days of treatment; assay type: cell-based, hepatitis B virus
Protocol: The anti HBV activity was measured using the HepG2.117 cell line, a stable, inducibly HBV producing cell line, which replicates HBV in the absence of doxycycline (Tet-off system). The HepG2 cell line is available from ATCCR under number HB-8065. Transfection of the HepG2 cell line can be as described in Sun and Nassal 2006 Journal of Hepatology 45 (2006) 636-645 “Stable HepG2- and Huh7-based human hepatoma cell lines for efficient regulated expression of infectious hepatitis B virus”.
For the antiviral assay, HBV replication was induced, followed by a treatment with serially diluted compound in 96-well plates. After 3 days of treatment, the antiviral activity was determined by quantification of intracellular HBV DNA using real-time PCR and an HBV specific primer set and probe.

[3] = 3-days incubation (unmarked values), ATPlite
[4] = HepG2.117 cells, 3 days of treatment, intracellular HBV DNA by real-time PCR; mean value; read-out: EC50 (μM, mean value)
[5] = Hepatitis B virus, HepG2.117, 72 h, HepG2.117 cells, 3 days of treatment, intracellular HBV DNA by real-time PCR; mean value; read-out: EC50 (μM, mean value)
[6] = Hepatitis B virus, HepG2.117, 72 h, HepG2.117 cells, intracellular HBV DNA by real-time PCR, 3 days of treatment, mean value; read-out: EC50 (μM, mean value)

Structure (SMILES) | CC50 at 3 days [1, 3] | EC50 [2, 5] | other results
CNC(=O)c1ccc(-n2c(NC(C)C)nc3c(c2=O)C[C@@H](C)N(C(=O)c2ccc(Cl)c(Cl)c2)C3)c(C(F)(F)F)c1 (atropisomer, axis not shown) [Compound C340a, 4-[(6R)-7-(3,4-dichlorobenzoyl)-6-methyl-4-oxo-2-[(propan-2-yl)amino]-5,6,7,8-tetrahydropyrido[3,4-d]pyrimidin-3(4H)-yl]-N-methyl-3-(trifluoromethyl)benzamide] | 23.2 µM |  | EC50 [2, 4]: 0.1 µM
CNC(=O)c1ccc(-n2c(N[C@@H](C)c3cccnc3OC)nc3c(c2=O)C[C@@H](C)N(C(=O)c2ccc(Cl)c(Cl)c2)C3)cc1 (relative stereo) [Compound C286, 4-[(rt)-7-(3,4-dichlorobenzoyl)-2-{[(1*S)-1-(2-methoxypyridin-3-yl)ethyl]amino}-6-methyl-4-oxo-5,6,7,8-tetrahydropyrido[3,4-d]pyrimidin-3(4H)-yl]-N-methylbenzamide] | 29 µM | 0.12 µM | 
COc1ccc(CNc2nc3c(c(=O)n2-c2ccccc2OC)C[C@@H](C)N(C(=O)c2ccc(Cl)c(Cl)c2)C3)cc1 (single isomer, unassigned) [Compound C36Aa] | > 50 µM | 0.31 µM | 
COc1ccc(CNc2nc3c(c(=O)n2-c2ccccc2OC)C[C@H](C)N(C(=O)c2ccc(Cl)c(Cl)c2)C3)cc1 (single isomer, unassigned) [Compound C36Ab] | > 50 µM |  | EC50 [2, 4]: 2.12 µM
COc1ccccc1-n1c(N[C@H](C)CO)nc2c(c1=O)CCN(C(=O)c1ccc(Cl)c(Cl)c1)C2 (single isomer, unassigned) [Compound C62A, 7-(3,4-dichlorobenzoyl)-2-{[(2*R)-1-hydroxypropan-2-yl]amino}-3-(2-methoxyphenyl)-5,6,7,8-tetrahydropyrido[3,4-d]pyrimidin-4(3H)-one] | > 50 µM | 9.88 µM | 
COc1ccccc1-n1c(N[C@@H](C)CO)nc2c(c1=O)CCN(C(=O)c1ccc(Cl)c(Cl)c1)C2 (single isomer, unassigned) [Compound C62Ba, 7-(3,4-dichlorobenzoyl)-2-{[(2*S)-1-hydroxypropan-2-yl]amino}-3-(2-methoxyphenyl)-5,6,7,8-tetrahydropyrido[3,4-d]pyrimidin-4(3H)-one] | > 50 µM | 3.65 µM | 
COc1ccccc1-n1c(N[C@H](C)C(F)(F)F)nc2c(c1=O)CCN(C(=O)c1ccc(Cl)c(Cl)c1)C2 (single isomer, unassigned) [Compound C101a] | 36.9 µM |  | EC50 [2, 4]: 22.1 µM
COc1ccc(CNc2nc3c(c(=O)n2-c2ccc(S(C)(=O)=O)cc2)C[C@@H](c2ccc(F)cc2)N(C(=O)c2ccc(Cl)c(Cl)c2)C3)cc1 (single isomer, unassigned) [Compound C109A, (6*S)-7-(3,4-dichlorobenzoyl)-6-(4-fluorophenyl)-3-[4-(methanesulfonyl)phenyl]-2-{[(4-methoxyphenyl)methyl]amino}-5,6,7,8-tetrahydropyrido[3,4-d]pyrimidin-4(3H)-one] | > 50 µM | > 50 µM | 
COc1ccc(CNc2nc3c(c(=O)n2-c2ccc(S(C)(=O)=O)cc2)C[C@H](c2ccc(F)cc2)N(C(=O)c2ccc(Cl)c(Cl)c2)C3)cc1 (single isomer, unassigned) [Compound C109B, (6*R)-7-(3,4-dichlorobenzoyl)-6-(4-fluorophenyl)-3-[4-(methanesulfonyl)phenyl]-2-{[(4-methoxyphenyl)methyl]amino}-5,6,7,8-tetrahydropyrido[3,4-d]pyrimidin-4(3H)-one] | > 50 µM |  | 
CC(C)Nc1nc2c(c(=O)n1-c1ccc(S(C)(=O)=O)cc1)C[C@@H](c1ccc(F)cc1)N(C(=O)c1ccc(Cl)c(Cl)c1)C2 (single isomer, unassigned) [Compound C110A, (6*S)-7-(3,4-dichlorobenzoyl)-6-(4-fluorophenyl)-3-[4-(methanesulfonyl)phenyl]-2-[(propan-2-yl)amino]-5,6,7,8-tetrahydropyrido[3,4-d]pyrimidin-4(3H)-one] | > 50 µM | > 50 µM | 
CC(C)Nc1nc2c(c(=O)n1-c1ccc(S(C)(=O)=O)cc1)C[C@H](c1ccc(F)cc1)N(C(=O)c1ccc(Cl)c(Cl)c1)C2 (single isomer, unassigned) [Compound C110B, (6*R)-7-(3,4-dichlorobenzoyl)-6-(4-fluorophenyl)-3-[4-(methanesulfonyl)phenyl]-2-[(propan-2-yl)amino]-5,6,7,8-tetrahydropyrido[3,4-d]pyrimidin-4(3H)-one] | > 50 µM | 6.38 µM | 
CC(C)Nc1nc2c(c(=O)n1-c1ccc(S(C)(=O)=O)cc1)[C@@H](C)CN(C(=O)c1ccc(Cl)c(Cl)c1)C2 (single isomer, unassigned) [Compound C154A, (*R)-7-(3,4-dichlorobenzoyl)-2-(isopropylamino)-5-methyl-3-(4-(methylsulfonyl)phenyl)-5,6,7,8-tetrahydropyrido[3,4-d]pyrimidin-4(3H)-one] | > 50 µM | 1.32 µM | 
CC(C)Nc1nc2c(c(=O)n1-c1ccc(S(C)(=O)=O)cc1)[C@H](C)CN(C(=O)c1ccc(Cl)c(Cl)c1)C2 (single isomer, unassigned) [Compound C154B, (*S)-7-(3,4-dichlorobenzoyl)-2-(isopropylamino)-5-methyl-3-(4-(methylsulfonyl)-phenyl)-5,6,7,8-tetrahydropyrido[3,4-d]pyrimidin-4(3H)-one] | > 50 µM | 0.51 µM | 
CC[C@@H]1Cc2c(nc(NC(C)C)n(-c3ccc(S(C)(=O)=O)cc3)c2=O)CN1C(=O)c1ccc(Cl)c(Cl)c1 (single isomer, unassigned) [Compound C158A, (6*R)-7-(3,4-dichlorobenzoyl)-6-ethyl-3-[4-(methanesulfonyl)phenyl]-2-[(propan-2-yl)amino]-5,6,7,8-tetrahydropyrido[3,4-d]pyrimidin-4(3H)-one] | > 50 µM | 0.91 µM | 
CC[C@H]1Cc2c(nc(NC(C)C)n(-c3ccc(S(C)(=O)=O)cc3)c2=O)CN1C(=O)c1ccc(Cl)c(Cl)c1 (single isomer, unassigned) [Compound C158B, (6*S)-7-(3,4-dichlorobenzoyl)-6-ethyl-3-[4-(methanesulfonyl)phenyl]-2-[(propan-2-yl)amino]-5,6,7,8-tetrahydropyrido[3,4-d]pyrimidin-4(3H)-one] | 35.7 µM | 2.13 µM | 
CNC(=O)OCC[C@@H](Nc1nc2c(c(=O)n1-c1ccc(C(=O)NC)cc1)C[C@@H](C)N(C(=O)c1ccc(Cl)c(Cl)c1)C2)C1CC1 (single isomer, unassigned) [Compound C256, (3*R)-3-cyclopropyl-3-({(6R)-7-(3,4-dichlorobenzoyl)-6-methyl-3-[4-(methylcarbamoyl)phenyl]-4-oxo-3,4,5,6,7,8-hexahydropyrido[3,4-d]pyrimidin-2-yl}amino)propyl methylcarbamate] | > 50 µM | 3.26 µM | 
CNC(=O)OCC[C@H](Nc1nc2c(c(=O)n1-c1ccc(C(=O)NC)cc1)C[C@@H](C)N(C(=O)c1ccc(Cl)c(Cl)c1)C2)C1CC1 (single isomer, unassigned) [Compound C257, (3*S)-3-cyclopropyl-3-({(6R)-7-(3,4-dichlorobenzoyl)-6-methyl-3-[4-(methylcarbamoyl)phenyl]-4-oxo-3,4,5,6,7,8-hexahydropyrido[3,4-d]pyrimidin-2-yl}amino)propyl methylcarbamate] | > 50 µM | 0.84 µM | 
CNC(=O)c1ccc(-n2c(N[C@@H](C)c3ccc(C(F)(F)F)c(F)c3)nc3c(c2=O)C[C@@H](C)N(C(=O)c2ccc(Cl)c(Cl)c2)C3)cc1 (single isomer, unassigned) [Compound C659b] |  |  | EC50 [2, 6]: > 2.5 µM
CC(C)Nc1nc2c(c(=O)n1-c1ccc(S(C)(=O)=O)cc1)CCN(C(=O)c1cc3cc(Cl)ccc3[nH]1)C2 [Compound C357] | > 50 µM |  | 
CC(C)Nc1nc2c(c(=O)n1-c1ccc(S(C)(=O)=O)cc1)CCN(C(=O)c1cc3ncccc3[nH]1)C2 [Compound C368] | > 50 µM |  | 
CC(C)Nc1nc2c(c(=O)n1-c1ccc(S(C)(=O)=O)cc1)CCN(C(=O)c1cc3cnccc3[nH]1)C2 [Compound C369] | > 50 µM |  | 
CNC(=O)c1ccc(-n2c(NCc3cnn(-c4ccccc4)n3)nc3c(c2=O)C[C@@H](C)N(C(=O)c2ccc(Cl)c(Cl)c2)C3)cc1 [Compound C464] |  |  | EC50 [2, 6]: 0.62 µM
CC(C)Nc1nc2c(c(=O)n1-c1ccc(C(=O)N3CCOCC3)cc1)C[C@@H](C)N(C(=O)c1ccc(Cl)c(C(F)(F)F)c1)C2 [Compound C649] |  |  | CC50 at 3 days ([1]; ATPlite, 3-days incubation (not marked with *)): > 50 µM
CNC(=O)c1ccc(-n2c(N[C@@H](C)c3ccc(C(F)(F)F)cc3)nc3c(c2=O)C[C@@H](C)N(C(=O)c2ccc(Cl)c(C(F)(F)F)c2)C3)cc1 [Compound C650] |  |  | EC50 [2, 6]: 0.05 µM
CNC(=O)c1ncc(-n2c(NC)nc3c(c2=O)C[C@@H](C)N(C(=O)c2ccc(Cl)c(C(F)(F)F)c2)C3)n1C [Compound C702] |  |  | CC50 at 3 days ([1]; 3-days incubation (unmarked values), ATPlite viability): > 50 µM

Reference: patent publication US20230091047A1 (priority 2019, published 2023)
